Consider 73 compounds from the Kinase Knowledgebase extract (Sharma et al. 2016).

This assay concerns the target CDK2 (human) (UniProt P24941). As to the kind of experiment: Enzyme Assay.
As for `CCCc1[nH]nc2c1N=C(c1ccccc1Cl)c1cc([N+](=O)[O-])ccc1N2`, the IC50 (commonly the concentration at which inhibition is half-maximal) was in the range of 10 to 990 nM.

`Cc1[nH]nc2c1N=C(c1ccccc1Cl)c1cc(NS(=O)(=O)N3CCOCC3)ccc1N2`: the IC50 was in the range of 10 to 990 nM.

The compound `O=[N+]([O-])c1ccc2c(c1)C(c1ccccc1)=Nc1c[nH]nc1N2` registered an IC50 of 10 to 990 nM.

As to `O=[N+]([O-])c1ccc2c(c1)C(c1ccccc1Cl)=Nc1c(n[nH]c1C(F)(F)F)N2`, the IC50 fell in the range of 10 to 990 nM.

Compound `Cc1[nH]nc2c1N=C(c1ccccc1F)c1cc(C(=O)N3CCOCC3)ccc1N2` came in with an IC50 of 10 to 990 nM.

`Cc1[nH]nc2c1N=C(c1ccccc1F)c1cc(C(=O)NCCO)ccc1N2` yielded an IC50 of 10 to 990 nM.

On to `COc1cc(O)ccc1-c1[nH]nc2c1N=C(c1ccccc1Cl)c1cc([N+](=O)[O-])ccc1N2`, for which the IC50 was in the range of 10 to 990 nM.

As for `O=[N+]([O-])c1ccc2c(c1)C(c1ccccc1Cl)=Nc1c(n[nH]c1-c1cccc(S)c1)N2`, the IC50 was in the range of 10 to 990 nM.

Take `Cc1[nH]nc2c1N=C(c1ccccc1F)c1cc(I)ccc1N2`: the half-maximal inhibitory concentration (IC50) fell in the range of 10 to 990 nM.

Turning to `NNC(=O)c1[nH]nc2c1N=C(c1ccccc1Cl)c1cc([N+](=O)[O-])ccc1N2`, the IC50 lay within 10 to 990 nM.

On to `N#Cc1[nH]nc2c1N=C(c1ccccc1Cl)c1cc([N+](=O)[O-])ccc1N2`, for which the IC50 was in the range of 10 to 990 nM.

As for `Cc1[nH]nc2c1N=C(c1ccccc1Cl)c1cc(NS(=O)(=O)NCCl)ccc1N2`, the IC50 is 10 to 990 nM.

The compound `Cc1[nH]nc2c1N=C(c1ccccc1)c1cc(F)ccc1N2` gave an IC50 of 10 to 990 nM.

Turning to `O=[N+]([O-])c1ccc2c(c1)C(c1ccccc1F)=Nc1c[nH]nc1N2`, the IC50 was in the range of 10 to 990 nM.

The compound `Cc1[nH]nc2c1N=C(c1ccccc1Cl)c1cc(NS(C)(=O)=O)ccc1N2` had an IC50 of 10 to 990 nM.

The compound `Cc1[nH]nc2c1N=C(c1ccccc1Cl)c1cc(NS(=O)(=O)N(C)C)ccc1N2` had a half-inhibitory concentration (IC50) of 10 to 990 nM.

`C=Cc1[nH]nc2c1N=C(c1ccccc1Cl)c1cc([N+](=O)[O-])ccc1N2`: the IC50 fell in the range of 10 to 990 nM.

Compound `O=[N+]([O-])c1ccc2c(c1)C(c1ccccc1C(F)(F)F)=Nc1c[nH]nc1N2` came in with an IC50 of 10 to 990 nM.

In turn, `CC(C)c1[nH]nc2c1N=C(c1ccccc1Cl)c1cc([N+](=O)[O-])ccc1N2` displayed an IC50 of 10 to 990 nM.

As to `CCOC(=O)c1ccc2c(c1)C(c1ccccc1F)=Nc1c(n[nH]c1C)N2`, the IC50 was in the range of 10 to 990 nM.

As for `Cc1[nH]nc2c1N=C(c1ccccc1F)c1ccccc1N2`, the IC50 lay in the range of 10 to 990 nM.

The compound `O=[N+]([O-])c1ccc2c(c1)C(c1ccccc1Cl)=Nc1c(n[nH]c1-c1nccs1)N2` came in with an IC50 of 10 to 990 nM.

`Cc1[nH]nc2c1N=C(c1ccccc1F)c1cc([N+](=O)[O-])ccc1N2`: the IC50 lay in the range of 10 to 990 nM.

`CC(=O)Nc1ccc2c(c1)C(c1ccccc1Cl)=Nc1c(n[nH]c1C)N2` displayed an IC50 of 10 to 990 nM.

Regarding `Cc1[nH]nc2c1N=C(c1ccccc1Cl)c1cc(Cl)ccc1N2`, the IC50 is 10 to 990 nM.

The compound `Cc1[nH]nc2c1N=C(c1ccccc1Cl)c1cc(N)ccc1N2` yielded an IC50 of 10 to 990 nM.

With `Cc1[nH]nc2c1N=C(c1ccccc1Cl)c1ccccc1N2`, the IC50 lay within 10 to 990 nM.

As for `Cc1cn[nH]c1-c1[nH]nc2c1N=C(c1ccccc1Cl)c1cc([N+](=O)[O-])ccc1N2`, the IC50 lay within 10 to 990 nM.

Regarding `Cc1[nH]nc2c1N=C(c1ccccc1)c1ccccc1N2`, the IC50 lay within 10 to 990 nM.

For the compound `O=[N+]([O-])c1ccc2c(c1)C(c1ccccc1Cl)=Nc1c(n[nH]c1-c1ccncc1)N2`, the IC50 lay within 10 to 990 nM.

Consider `O=[N+]([O-])c1ccc2c(c1)C(c1ccccc1Cl)=Nc1c(n[nH]c1-n1cccn1)N2`, for which the IC50 is 10 to 990 nM.

On to `Cc1[nH]nc2c1N=C(c1ccccc1F)c1cc(Cl)ccc1N2`, for which the IC50 lay in the range of 10 to 990 nM.

In turn, `O=[N+]([O-])c1ccc2c(c1)C(c1ccccc1Cl)=Nc1c(n[nH]c1-c1ccc(OC(F)(F)F)cc1)N2` showed an IC50 of 10 to 990 nM.

`Cc1[nH]nc2c1N=C(c1ccccc1)c1cc([N+](=O)[O-])ccc1N2`: the IC50 lay within 10 to 990 nM.

`O=[N+]([O-])c1ccc2c(c1)C(c1ccccc1Cl)=Nc1c(n[nH]c1-c1ccc[nH]1)N2` registered an IC50 of 10 to 990 nM.

In turn, `C=CC(=O)Nc1ccc2c(c1)C(c1ccccc1Cl)=Nc1c(n[nH]c1C)N2` displayed an IC50 of 10 to 990 nM.

`O=C(c1ccc2c(c1)C(c1ccccc1F)=Nc1c[nH]nc1N2)N1CCOCC1` gave an IC50 of 10 to 990 nM.

`Cc1[nH]nc2c1N=C(c1ccccc1)c1cc(Cl)ccc1N2` returned an IC50 of 10 to 990 nM.

For `O=[N+]([O-])c1ccc2c(c1)C(c1ccccc1Cl)=Nc1c(n[nH]c1-c1cc[nH]n1)N2`, the IC50 fell in the range of 10 to 990 nM.

The compound `Cc1[nH]nc2c1N=C(c1ccccc1F)c1cc(C#N)ccc1N2` came in with an IC50 of 10 to 990 nM.

In turn, `N#Cc1ccc2c(c1)C(c1ccccc1F)=Nc1c[nH]nc1N2` gave an IC50 of 10 to 990 nM.

On to `O=[N+]([O-])c1ccc2c(c1)C(c1ccccc1)=Nc1c(n[nH]c1C1CC1)N2`, for which the IC50 was 10 to 990 nM.

In the case of `Cc1[nH]nc2c1N=C(c1ccccc1C(F)(F)F)c1cc([N+](=O)[O-])ccc1N2`, the IC50 is 10 to 990 nM.

Take `COc1ccc2c(c1)C(c1ccccc1Cl)=Nc1c(n[nH]c1C)N2`: the IC50 fell in the range of 10 to 990 nM.

Regarding `NC(=O)c1ccc2c(c1)C(c1ccccc1F)=Nc1c[nH]nc1N2`, the IC50 was 10 to 990 nM.

`O=[N+]([O-])c1ccc2c(c1)C(c1ccccc1Cl)=Nc1c(n[nH]c1-c1ccco1)N2` came in with an IC50 of 10 to 990 nM.

In the case of `O=[N+]([O-])c1ccc2c(c1)C(c1ccccc1Cl)=Nc1c(n[nH]c1CO)N2`, the IC50 is 10 to 990 nM.

On to `Clc1ccccc1C1=Nc2c[nH]nc2Nc2ccccc21`, for which the IC50 lay within 10 to 990 nM.

The compound `CSc1ccc(-c2[nH]nc3c2N=C(c2ccccc2Cl)c2cc([N+](=O)[O-])ccc2N3)cc1` showed an IC50 of 10 to 990 nM.

`O=[N+]([O-])c1ccc2c(c1)C(c1ccccc1Cl)=Nc1c(n[nH]c1C1CC1)N2`: the IC50 fell in the range of 10 to 990 nM.

`O=[N+]([O-])c1ccc2c(c1)C(c1ccccc1Cl)=Nc1c(n[nH]c1-c1ccccc1)N2` came in with an IC50 of 10 to 990 nM.

Take `COCc1[nH]nc2c1N=C(c1ccccc1Cl)c1cc([N+](=O)[O-])ccc1N2`: the IC50 was in the range of 10 to 990 nM.

Turning to `O=[N+]([O-])c1ccc2c(c1)C(c1ccccc1Cl)=Nc1c[nH]nc1N2`, the IC50 is 10 to 990 nM.

The compound `Cc1[nH]nc2c1N=C(c1ccccc1F)c1cc(C(=O)NCCN3CCOCC3)ccc1N2` came in with an IC50 of 10 to 990 nM.

In turn, `Cc1cccc(S)c1-c1[nH]nc2c1N=C(c1ccccc1Cl)c1cc([N+](=O)[O-])ccc1N2` returned a concentration for half-maximal inhibition (IC50) of 10 to 990 nM.

Regarding `CCOC(=O)c1ccc2c(c1)C(c1ccccc1F)=Nc1c[nH]nc1N2`, the IC50 lay in the range of 10 to 990 nM.

For `O=[N+]([O-])c1ccc2c(c1)C(c1ccccc1Cl)=Nc1c(n[nH]c1-c1cccc3c1OCO3)N2`, the IC50 lay within 10 to 990 nM.

The compound `CCc1[nH]nc2c1N=C(c1ccccc1Cl)c1cc([N+](=O)[O-])ccc1N2` had an IC50 of 10 to 990 nM.

`O=Cc1[nH]nc2c1N=C(c1ccccc1Cl)c1cc([N+](=O)[O-])ccc1N2`: the IC50 lay in the range of 10 to 990 nM.

`O=[N+]([O-])c1ccc2c(c1)C(c1ccccc1Cl)=Nc1c(n[nH]c1-c1ccc(-c3ccccc3)cc1)N2`: the IC50 fell in the range of 10 to 990 nM.

For `O=[N+]([O-])c1ccc2c(c1)C(c1ccccc1Cl)=Nc1c(n[nH]c1-c1cccnc1)N2`, the IC50 fell in the range of 10 to 990 nM.

The compound `CC(C)c1[nH]nc2c1N=C(c1ccccc1Cl)c1cc(N)ccc1N2` returned an IC50 of 10 to 990 nM.

Consider `Cc1[nH]nc2c1N=C(c1ccccc1Cl)c1cc([N+](=O)[O-])ccc1N2`, for which the IC50 was 10 to 990 nM.

`O=[N+]([O-])c1ccc2c(c1)C(c1ccccc1Cl)=Nc1c(n[nH]c1-c1ccccc1S)N2` had an IC50 of 10 to 990 nM.

As to `O=[N+]([O-])c1ccc2c(c1)C(c1ccccc1Cl)=Nc1c(n[nH]c1-c1c[nH]cn1)N2`, the IC50 lay within 10 to 990 nM.

`N#Cc1ccc2c(c1)C(c1ccccc1F)=Nc1c(n[nH]c1CO)N2` displayed an IC50 of 10 to 990 nM.

For the compound `O=[N+]([O-])c1cccc(-c2[nH]nc3c2N=C(c2ccccc2Cl)c2cc([N+](=O)[O-])ccc2N3)c1`, the IC50 is 10 to 990 nM.

`Cc1[nH]nc2c1N=C(c1ccccc1F)c1cc(C(N)=O)ccc1N2` gave an IC50 of 10 to 990 nM.

As for `O=C(NCCO)c1ccc2c(c1)C(c1ccccc1F)=Nc1c[nH]nc1N2`, the IC50 was 10 to 990 nM.

Take `O=[N+]([O-])c1cccc(C2=Nc3c[nH]nc3Nc3ccc([N+](=O)[O-])cc32)c1`: the IC50 was in the range of 10 to 990 nM.

Consider `Cc1[nH]nc2c1N=C(c1ccccc1F)c1cc(F)ccc1N2`, for which the IC50 lay within 10 to 990 nM.

Consider `NC(=O)c1[nH]nc2c1N=C(c1ccccc1Cl)c1cc([N+](=O)[O-])ccc1N2`, for which the IC50 was 10 to 990 nM.

For `CCC(C)c1[nH]nc2c1N=C(c1ccccc1Cl)c1cc([N+](=O)[O-])ccc1N2` (stereo not drawn), the IC50 was in the range of 10 to 990 nM.
